Data reported in ChEMBL document CHEMBL1149707, “Structure-activity relationship studies of carboxamido-biaryl ethers as opioid receptor antagonists (OpRAs). Part 1” (Bioorg Med Chem Lett, 2007).

Each compound was assayed against T1, Mu-type opioid receptor (Homo sapiens, UniProt P35372) (assay: Antagonist activity at human mu opioid receptor expressed in CHO cells by [35S]GTP-gamma-S binding assay).
Format: functional, cell-based

T1 sequence (P35372 whole entry): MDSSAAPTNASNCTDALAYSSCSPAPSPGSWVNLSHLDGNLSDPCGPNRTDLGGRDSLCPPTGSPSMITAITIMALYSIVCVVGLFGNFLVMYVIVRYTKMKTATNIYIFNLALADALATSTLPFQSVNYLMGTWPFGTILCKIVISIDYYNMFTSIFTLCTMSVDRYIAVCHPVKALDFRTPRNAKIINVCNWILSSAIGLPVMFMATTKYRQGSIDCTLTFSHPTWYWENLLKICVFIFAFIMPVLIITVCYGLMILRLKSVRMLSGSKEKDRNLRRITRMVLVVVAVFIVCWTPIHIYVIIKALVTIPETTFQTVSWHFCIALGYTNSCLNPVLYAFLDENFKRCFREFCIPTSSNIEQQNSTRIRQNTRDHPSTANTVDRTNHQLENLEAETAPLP

| Compound | Ki [nM] |
| --- | --- |
| NC(=O)c1ccc(Oc2ccc(CCNCCc3ccccc3)cc2)nc1 | 16.6 |
| NC(=O)c1ccc(Oc2ccc(CCNCCCc3ccccc3)cc2)nc1 | 18.5 |
| NC(=O)c1ccc(Oc2ccc(CCCNCc3ccccc3)cc2)nc1 | 22.3 |
| NC(=O)c1ccc(Oc2ccc(CNCCc3ccccc3)cc2)cn1 | 0.44 |
| NC(=O)c1ccc(Oc2ccc(CCNCc3ccccc3)cc2)nc1 | 2.25 |
| NC(=O)c1ccc(Oc2ccc(NCCCc3ccccc3)cc2)nc1 | > 1000 |
| NC(=O)c1ccc(Oc2ccc(CNCc3ccccc3)cc2)nc1 | 4.09 |
| NC(=O)c1ccc(Oc2ccc(CNCCc3ccccc3)cc2)nc1 | 0.07 |
| NC(=O)c1ccc(Oc2ccc(CCCNc3ccccc3)cc2)nc1 | > 1000 |

The compounds below were run against T2, Kappa-type opioid receptor (Homo sapiens, UniProt P41145) (assay: Displacement of [3H]diprenorphine from human kappa opioid receptor expressed in CHO cells in presence of high sodium by SPA).
Format: cell-based

T2 sequence (P41145 whole entry): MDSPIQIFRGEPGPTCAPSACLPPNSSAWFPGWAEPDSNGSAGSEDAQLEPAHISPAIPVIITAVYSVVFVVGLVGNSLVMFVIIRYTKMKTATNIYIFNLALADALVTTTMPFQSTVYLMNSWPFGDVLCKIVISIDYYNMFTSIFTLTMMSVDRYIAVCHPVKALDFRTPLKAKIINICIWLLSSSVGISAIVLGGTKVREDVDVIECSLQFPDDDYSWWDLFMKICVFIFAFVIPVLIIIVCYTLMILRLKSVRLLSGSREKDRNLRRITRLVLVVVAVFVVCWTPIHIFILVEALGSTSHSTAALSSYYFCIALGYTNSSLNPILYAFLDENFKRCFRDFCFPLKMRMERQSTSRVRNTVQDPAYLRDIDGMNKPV

| Compound | Ki [nM] |
| --- | --- |
| NC(=O)c1cccc(Oc2ccc(CCNCc3ccccc3)cc2)n1 | > 5000 |
| NC(=O)c1ccc(Oc2ccc(CNCCc3ccccc3)cc2)cn1 | 69.3 |
| NC(=O)c1ccnc(Oc2ccc(CCNCc3ccccc3)cc2)c1 | > 5000 |
| NC(=O)c1cccnc1Oc1ccc(CCNCc2ccccc2)cc1 | > 5000 |
| N#Cc1ccc(Oc2ccc(CCNCc3ccccc3)cc2)nc1 | > 5000 |
| NCc1ccc(Oc2ccc(CCNCc3ccccc3)cc2)nc1 | > 5000 |
| O=C(O)c1ccc(Oc2ccc(CCNCc3ccccc3)cc2)nc1 | > 5000 |
| NC(=O)c1ccc(Oc2ccc(CCNCc3ccccc3)cc2)nc1 | 136 |
| N=C(N)c1ccc(Oc2ccc(CNCCc3ccccc3)cc2)nc1 | 1150 |
| NS(=O)(=O)c1ccc(Oc2ccc(CCNCc3ccccc3)cc2)cc1 | > 5000 |
| CNC(=N)c1ccc(Oc2ccc(CNCCc3ccccc3)cc2)nc1 | > 5000 |
| CCNC(=O)c1ccc(Oc2ccc(CNCCc3ccccc3)cc2)nc1 | 2810 |
| CC(C)NC(=O)c1ccc(Oc2ccc(CNCCc3ccccc3)cc2)nc1 | > 5000 |
| NC(=O)c1ccc(Oc2ccc(CNCCc3ccccc3)cc2)cc1 | 15 |
| CNC(=O)c1ccc(Oc2ccc(CNCCc3ccccc3)cc2)nc1 | > 5000 |
| O=C(c1ccc(Oc2ccc(CNCCc3ccccc3)cc2)nc1)N1CCCCC1 | > 5000 |

What follows are compounds tested against T3, Delta-type opioid receptor (Homo sapiens, UniProt P41143) (assay: Antagonist activity at human delta opioid receptor expressed in CHO cells by [35S]GTP-gamma-S binding assay).
Format: functional, cell-based

T3 sequence (P41143 whole entry): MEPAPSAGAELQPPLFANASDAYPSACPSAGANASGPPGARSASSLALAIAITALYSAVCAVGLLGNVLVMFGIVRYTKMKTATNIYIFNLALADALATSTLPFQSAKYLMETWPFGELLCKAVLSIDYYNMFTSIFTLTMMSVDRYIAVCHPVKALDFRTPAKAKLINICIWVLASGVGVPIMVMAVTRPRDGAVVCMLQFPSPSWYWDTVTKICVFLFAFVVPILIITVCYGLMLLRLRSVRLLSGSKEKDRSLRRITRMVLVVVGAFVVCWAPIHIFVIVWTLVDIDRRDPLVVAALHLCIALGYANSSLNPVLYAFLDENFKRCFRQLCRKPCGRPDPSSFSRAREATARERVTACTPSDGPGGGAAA

| Compound | Kb [nM] |
| --- | --- |
| NC(=O)c1ccc(Oc2ccc(CCNCCc3ccccc3)cc2)nc1 | 128 |
| NC(=O)c1ccc(Oc2ccc(CCNCCCc3ccccc3)cc2)nc1 | 212 |
| NC(=O)c1ccc(Oc2ccc(CCCNCc3ccccc3)cc2)nc1 | 496 |
| NC(=O)c1ccc(Oc2ccc(CNCCc3ccccc3)cc2)cn1 | 2.86 |
| NC(=O)c1ccc(Oc2ccc(CCNCc3ccccc3)cc2)nc1 | 23.1 |
| NC(=O)c1ccc(Oc2ccc(NCCCc3ccccc3)cc2)nc1 | > 1000 |
| NC(=O)c1ccc(Oc2ccc(CNCc3ccccc3)cc2)nc1 | 54.1 |
| C[C@H]1CN(CC[C@H](O)C2CCCCC2)CC[C@@]1(C)c1cccc(O)c1 | 1.19 |
| NC(=O)c1ccc(Oc2ccc(CCCNc3ccccc3)cc2)nc1 | > 1000 |

Each compound was assayed against T3, Delta-type opioid receptor (assay: Displacement of [3H]bremazocine from human delta opioid receptor expressed in CHO cells in presence of high sodium by SPA).
Format: cell-based

| Compound | Ki [nM] |
| --- | --- |
| NC(=O)c1cccc(Oc2ccc(CCNCc3ccccc3)cc2)n1 | > 5000 |
| NC(=O)c1ccc(Oc2ccc(CNCCc3ccccc3)cc2)cn1 | 8.54 |
| NC(=O)c1ccnc(Oc2ccc(CCNCc3ccccc3)cc2)c1 | > 5000 |
| NC(=O)c1cccnc1Oc1ccc(CCNCc2ccccc2)cc1 | > 5000 |
| N#Cc1ccc(Oc2ccc(CCNCc3ccccc3)cc2)nc1 | > 5000 |
| NCc1ccc(Oc2ccc(CCNCc3ccccc3)cc2)nc1 | > 5000 |
| O=C(O)c1ccc(Oc2ccc(CCNCc3ccccc3)cc2)nc1 | > 5000 |
| NC(=O)c1ccc(Oc2ccc(CCNCc3ccccc3)cc2)nc1 | 70.2 |
| N=C(N)c1ccc(Oc2ccc(CNCCc3ccccc3)cc2)nc1 | 215 |
| NS(=O)(=O)c1ccc(Oc2ccc(CCNCc3ccccc3)cc2)cc1 | > 5000 |
| CNC(=N)c1ccc(Oc2ccc(CNCCc3ccccc3)cc2)nc1 | 3460 |
| CCNC(=O)c1ccc(Oc2ccc(CNCCc3ccccc3)cc2)nc1 | 674 |
| CC(C)NC(=O)c1ccc(Oc2ccc(CNCCc3ccccc3)cc2)nc1 | 2410 |
| C[C@H]1CN(CC[C@H](O)C2CCCCC2)CC[C@@]1(C)c1cccc(O)c1 | 4.82 |
| CNC(=O)c1ccc(Oc2ccc(CNCCc3ccccc3)cc2)nc1 | 718 |
| O=C(c1ccc(Oc2ccc(CNCCc3ccccc3)cc2)nc1)N1CCCCC1 | > 5000 |

What follows are compounds tested against T1, Mu-type opioid receptor (assay: Displacement of [3H]diprenorphine from human mu opioid receptor expressed in CHO cells in presence of high sodium by SPA).
Format: cell-based

| Compound | Ki [nM] |
| --- | --- |
| NC(=O)c1cccc(Oc2ccc(CCNCc3ccccc3)cc2)n1 | 643 |
| NC(=O)c1ccc(Oc2ccc(CNCCc3ccccc3)cc2)cn1 | 1.77 |
| NC(=O)c1ccnc(Oc2ccc(CCNCc3ccccc3)cc2)c1 | > 2500 |
| NC(=O)c1cccnc1Oc1ccc(CCNCc2ccccc2)cc1 | > 2500 |
| N#Cc1ccc(Oc2ccc(CCNCc3ccccc3)cc2)nc1 | 1080 |
| NCc1ccc(Oc2ccc(CCNCc3ccccc3)cc2)nc1 | > 2500 |
| O=C(O)c1ccc(Oc2ccc(CCNCc3ccccc3)cc2)nc1 | > 2500 |
| NC(=O)c1ccc(Oc2ccc(CCNCc3ccccc3)cc2)nc1 | 7.44 |
| N=C(N)c1ccc(Oc2ccc(CNCCc3ccccc3)cc2)nc1 | 20.6 |
| NS(=O)(=O)c1ccc(Oc2ccc(CCNCc3ccccc3)cc2)cc1 | > 2500 |
| CNC(=N)c1ccc(Oc2ccc(CNCCc3ccccc3)cc2)nc1 | 235 |
| CCNC(=O)c1ccc(Oc2ccc(CNCCc3ccccc3)cc2)nc1 | 57.1 |
| CC(C)NC(=O)c1ccc(Oc2ccc(CNCCc3ccccc3)cc2)nc1 | 52.3 |
| NC(=O)c1ccc(Oc2ccc(CNCCc3ccccc3)cc2)nc1 | 0.17 |
| CNC(=O)c1ccc(Oc2ccc(CNCCc3ccccc3)cc2)nc1 | 52.3 |
| O=C(c1ccc(Oc2ccc(CNCCc3ccccc3)cc2)nc1)N1CCCCC1 | 389 |

What follows are compounds tested against T2, Kappa-type opioid receptor (assay: Antagonist activity at human kappa opioid receptor expressed in CHO cells by [35S]GTP-gamma-S binding assay).
Format: functional, cell-based

| Compound | Ki [nM] |
| --- | --- |
| NC(=O)c1ccc(Oc2ccc(CCNCCc3ccccc3)cc2)nc1 | 23.3 |
| NC(=O)c1ccc(Oc2ccc(CCNCCCc3ccccc3)cc2)nc1 | 24.1 |
| NC(=O)c1ccc(Oc2ccc(CCCNCc3ccccc3)cc2)nc1 | 45.8 |
| NC(=O)c1ccc(Oc2ccc(CNCCc3ccccc3)cc2)cn1 | 9.6 |
| NC(=O)c1ccc(Oc2ccc(CCNCc3ccccc3)cc2)nc1 | 18.4 |
| NC(=O)c1ccc(Oc2ccc(NCCCc3ccccc3)cc2)nc1 | > 1000 |
| NC(=O)c1ccc(Oc2ccc(CNCc3ccccc3)cc2)nc1 | 2.47 |
| NC(=O)c1ccc(Oc2ccc(CNCCc3ccccc3)cc2)cc1 | 1.22 |
| NC(=O)c1ccc(Oc2ccc(CCCNc3ccccc3)cc2)nc1 | > 1000 |
